# Assay results reported in patent publication US9782516B2, “Tissue adhesive coatings for drug coated balloon” (ABBOTT CARDIOVASCULAR SYSTEMS INC., priority 2013, dated 2017).
# Tests used:
# [1] = Percent of dose in the vessel from pure zotarolimus coated coronary balloon with stent (FIG. 2); type: in vivo
# Experimental: FIG. 2 is a graph illustrating percent transfer efficiency as a function of time for pure zotarolimus coatings on a zotarolimus coated balloon.
# (§1) With a stent on a coronary balloon, the percent of dose in the vessel from a pure zotarolimus coated balloon was measured at about 30 minutes, 1 day, and 7 days.
# [2] = Drug transfer efficiency of drug coated balloons (Table 1); type: in vivo; conditions: balloon 3 × 12 mm, coronary, 20% overstretch, stent present, inflation 30 s, time point 30 minutes
# Experimental: For purpose of explanation, and not limitation, of the disclosed subject matter, reference is now made to a comparative study between paclitaxel and zotarolimus.
# as §1
# [3] = in vivo
# [4] = Percent tissue uptake from paclitaxel coated balloon (FIG. 3); type: in vivo; conditions: porcine coronary arteries, day 1 (24 hours)
# [5] = test system: whole blood; experiment: Acute thrombogenicity of stents in whole blood via the Chandler Loop (FIG. 5); conditions: drug coated stents in whole blood; compared to zotarolimus
Structure (SMILES),"percent drug in tissue over time ([1]; coronary balloon with stent, measured at about 30 minutes, 1 day and 7 days)","tissue uptake ([1]; pure zotarolimus coated coronary balloon with stent, 652 μg dose, day 1 (24 hours))",Percent transfer efficiency ([2]; dose 104 μg/cm^2),Percent transfer efficiency ([2]; dose 576 μg/cm^2),histology evidence of coating fragments adhering to a vessel wall [3],tissue uptake [4],acute thrombogenicity as measured by lactate dehydrogenase (LDH) [5]
"CO[C@H]1C[C@@H]2CC[C@@H](C)[C@@](O)(O2)C(=O)C(=O)N2CCCC[C@H]2C(=O)O[C@H]([C@H](C)C[C@@H]2CC[C@H](n3cnnn3)[C@H](OC)C2)CC(=O)[C@H](C)/C=C(\C)[C@@H](O)[C@@H](OC)C(=O)[C@H](C)C[C@H](C)/C=C/C=C/C=C/1C [Pure Zotarolimus, zotarolimus]",rapid decrease in the percent drug in tissue,about 0.56%,4.7,5.2,no apparent histology evidence,–,–
CC(=O)O[C@H]1C(=O)[C@@]2(C)[C@H]([C@H](OC(=O)c3ccccc3)[C@]3(O)C[C@H](OC(=O)[C@H](O)[C@@H](NC(=O)c4ccccc4)c4ccccc4)C(C)=C1C3(C)C)[C@]1(OC(C)=O)CO[C@@H]1C[C@@H]2O [paclitaxel],–,–,–,–,–,about 2%,more thrombogenic
